Reference: publication PMC9250534, “Synthesis and direct assay of large macrocycle diversities by combinatorial late-stage modification at picomole scale” (Nature Communications, 2022)
Numbered stars: 1 amine (or outer) side, 2 acyl side, 3 side chain; on linkers, the order of the positions; unused ones are H or OH. Bridge positions count the residues as written; N and C are the ends. Square brackets hold non-standard residues; d marks the D form. Peptide text beside a SMILES is read from it. * marks the point of attachment. ξ: configuration not given here. Pro(cis-4-NH-(E)-Cinnamoyl) = O=C(/C=C/c1ccccc1)N[C@@H]1CN[C@H](C(=O)O)C1; Pro(cis-4-NHBenzoyl(4-Cl)) = O=C(N[C@@H]1CN[C@H](C(=O)O)C1)c1ccc(Cl)cc1; ξPro(4-NHCO(5-Cl-2-thienyl)) = O=C(NC1CNC(C(=O)O)C1)c1ccc(Cl)s1; 2Thenoyl(5-Cl) = O=C(c1ccc(Cl)s1)*; Benzoyl(4-Cl) = O=C(c1ccc(Cl)cc1)*; Cysteamide = C(CS[*:3])N[*:1]; X1 = O=C(/C=C/c1ccccc1)*; Api = NC1(C(=O)O)CCNCC1; Dap = NC[CH](N)C(=O)O; Mpa = O=C(O)CCS

Biological target: MDM2 (Homo sapiens, UniProt Q00987)
Sequence (Q00987 whole entry): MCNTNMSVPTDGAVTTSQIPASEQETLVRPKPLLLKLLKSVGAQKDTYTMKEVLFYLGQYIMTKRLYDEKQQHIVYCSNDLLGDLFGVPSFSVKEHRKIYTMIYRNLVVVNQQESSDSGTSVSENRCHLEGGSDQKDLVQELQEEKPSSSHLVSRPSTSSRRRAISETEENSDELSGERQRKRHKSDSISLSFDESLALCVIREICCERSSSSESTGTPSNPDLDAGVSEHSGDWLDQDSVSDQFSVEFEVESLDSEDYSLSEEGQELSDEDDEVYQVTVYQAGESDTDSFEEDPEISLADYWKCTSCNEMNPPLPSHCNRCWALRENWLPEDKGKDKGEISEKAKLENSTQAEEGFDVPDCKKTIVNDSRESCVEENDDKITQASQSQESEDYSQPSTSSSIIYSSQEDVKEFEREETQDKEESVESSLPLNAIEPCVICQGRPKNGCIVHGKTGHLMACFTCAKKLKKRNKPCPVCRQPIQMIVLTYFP
Assay: MDM2 binding screen: displacement of fluorescent p53 peptide probe FP53 (fluorescence polarization)
Details: for fraction fluorescent probe displaced, Screen: initial screen; for fraction fluorescent probe displaced, Screen / fraction fluorescent probe displaced, Replicate: crude macrocycle reactions
Procedure: We screened Library 2 in 384-microwell plates by dispensing the target protein MDM2 and reporter peptide into the wells containing the macrocycle reactions.
The products were screened for displacement of a p53-based fluorescent peptide from human MDM2. Final macrocycle concentrations were 10 µM. For each macrocycle, the MDM2 binding was measured once.
One fluorescence anisotropy reading was taken with a Tecan Infinite F200 Pro fluorescence plate reader (excitation at 485 nm, emission at 535 nm) at 25 °C. Data was collected and exported using the Tecan Infinite M200 Pro instrument software. The data was analyzed by Excel (version 2016).

Row | fraction fluorescent probe displaced, Screen (Acid 25) | fraction fluorescent probe displaced, Replicate (Acid 25) | fraction fluorescent probe displaced, Screen (Acid 14) | fraction fluorescent probe displaced, Replicate (Acid 14) | SMILES | also measured
1 | 0.15 | 0.07 |  |  | O=C1CCSSCCNC(=O)C(Cc2c[nH]c3ccccc23)NC(=O)C2CN(C(=O)c3ccc(Cl)cc3)CCN2C(=O)CCN1 (mixture of isomers) [X B2 D7 W Acid 25] | 
2 | -0.07 | 0.0465 |  |  | O=C1CCSSCCNC(=O)C2CN(C(=O)c3ccc(Cl)cc3)CCN2C(=O)C(Cc2ccccc2)NC(=O)CCN1 (mixture of isomers) [X B2 F D7 Acid 25] | 
3 |  |  | -0.00483 | 0.0465 | O=C1CCSSCCNC(=O)C(Cc2ccccc2)NC(=O)C2CN(C(=O)c3ccc(Cl)s3)CCN2C(=O)c2cccc(c2)CN1 (mixture of isomers) [X B5 D7 F Acid 14] | 
4 | -0.00813 | 0.17 |  |  | O=C1CCSSCCNC(=O)C2CN(C(=O)c3ccc(Cl)cc3)CCN2C(=O)C(Cc2ccccc2)NC(=O)c2cccc(c2)CN1 (mixture of isomers) [X B5 F D7 Acid 25] | 
5 | 0.61 | 0.58 |  |  | O=C1NCCSSCCC(=O)N2CCN(C(=O)c3ccc(Cl)cc3)CC2C(=O)NC(Cc2c[nH]c3ccccc23)C(=O)NCc2cccc1c2 (mixture of isomers) [X D7 W B5 Acid 25] | 
6 | 0.09 | 0.07 |  |  | O=C1CCSSCCNC(=O)c2cccc(c2)CNC(=O)C2CN(C(=O)c3ccc(Cl)cc3)CCN2C(=O)C(Cc2ccccc2)N1 (mixture of isomers) [X F D7 B5 Acid 25] | 
7 | 0.09 | 0.10 |  |  | O=C1NCCSSCCC(=O)N2CCCC2C(=O)N2CCN(C(=O)c3ccc(Cl)cc3)CC2C(=O)NC1Cc1c[nH]c2ccccc12 (stereo not drawn) [X B1 D7 W Acid 25] | 
8 |  |  | 0.08 | 0.10 | O=C(NC[C@@H]1NC(=O)[C@H](Cc2ccccc2)NC(=O)[C@@H]2CCCN2C(=O)CCSSCCNC1=O)c1ccc(Cl)s1 [X B1 F D3 Acid 14] ([Mpa]PF[Dap](2Thenoyl(5-Cl))-Cysteamide; disulfide 1-C) | 
9 |  |  | 0.11 | 0.07 | O=C(NC1CC2C(=O)NCCSSCCC(=O)N3CCCC3C(=O)NC(Cc3ccccc3)C(=O)N2C1)c1ccc(Cl)s1 (stereo not drawn) [X B1 F D5 Acid 14] ([Mpa]PF[ξPro(4-NHCO(5-Cl-2-thienyl))]-Cysteamide; disulfide 1-C; configuration not given here) | 
10 |  |  | 0.08 | 0.07 | O=C1NC2(CCN(C(=O)c3ccc(Cl)s3)CC2)C(=O)NCCSSCCC(=O)N2CCCC2C(=O)NC1Cc1ccccc1 (stereo not drawn) [X B1 F D6 Acid 14] ([Mpa]PF[Api](2Thenoyl(5-Cl))-Cysteamide; disulfide 1-C; configuration not given here) | 

More lines, now with the values behind:

Row | SMILES | fraction fluorescent probe displaced, Screen (Acid 25) | fraction fluorescent probe displaced, Replicate (Acid 25) | fraction fluorescent probe displaced, Screen (Acid 14) | fraction fluorescent probe displaced, Replicate (Acid 14) | also measured
11 | O=C1CCSSCCNC(=O)C2CN(C(=O)c3ccc(Cl)s3)CCN2C(=O)C(Cc2c[nH]c3ccccc23)NC(=O)CCN1 (mixture of isomers) [X B2 W D7 Acid 14] |  |  | 0.23 | 0.10 | 
12 | O=C1CCSSCCNC(=O)C(Cc2ccccc2)NC(=O)C2CN(C(=O)C=Cc3ccccc3)CCN2C(=O)c2cccc(c2)CN1 (mixture of isomers) [X B5 D7 F Acid 91] |  |  |  |  | fraction fluorescent probe displaced, Screen (Acid 91): -0.10; fraction fluorescent probe displaced, Replicate (Acid 91): -0.00827
13 | O=C1CCNC(=O)C2CN(C(=O)c3ccc(Cl)cc3)CCN2C(=O)CCSSCCNC(=O)C(Cc2ccccc2)N1 (mixture of isomers) [X D7 B2 F Acid 25] | -0.04 | 0.07 |  |  | 
14 | O=C1NC(Cc2c[nH]c3ccccc23)C(=O)NCCSSCCC(=O)N2CCN(C(=O)c3ccc(Cl)cc3)CC2C(=O)N2CCCC1C2 (mixture of isomers) [X D7 B4 W Acid 25] | 0.25 | 0.25 |  |  | 
15 | O=C1NCCSSCCC(=O)N2CCN(C(=O)c3ccc(Cl)s3)CC2C(=O)NC(Cc2ccccc2)C(=O)NCc2cccc1c2 (mixture of isomers) [X D7 F B5 Acid 14] |  |  | 0.11 | 0.17 | 
16 | O=C1CCSSCCNC(=O)C2CCCN2C(=O)C2CN(C(=O)C=Cc3ccccc3)CCN2C(=O)C(Cc2ccccc2)N1 (mixture of isomers) [X F D7 B1 Acid 91] |  |  |  |  | fraction fluorescent probe displaced, Screen (Acid 91): -0.0241; fraction fluorescent probe displaced, Replicate (Acid 91): -0.06
17 | O=C1CCSSCCNC(=O)C2CN(C(=O)C=Cc3ccccc3)CCN2C(=O)C2CCCN2C(=O)C(Cc2c[nH]c3ccccc23)N1 (mixture of isomers) [X W B1 D7 Acid 91] |  |  |  |  | fraction fluorescent probe displaced, Screen (Acid 91): 0.22; fraction fluorescent probe displaced, Replicate (Acid 91): 0.07
18 | O=C1CCSSCCNC(=O)C2CN(C(=O)c3ccc(Cl)s3)CCN2C(=O)CCNC(=O)C(Cc2c[nH]c3ccccc23)N1 (mixture of isomers) [X W B2 D7 Acid 14] |  |  | 0.08 | 0.17 | 
19 | O=C1CCSSCCNC(=O)C2CCCN2C(=O)C2CN(C(=O)C=Cc3ccccc3)CCN2C(=O)C(Cc2c[nH]c3ccccc23)N1 (mixture of isomers) [X W D7 B1 Acid 91] |  |  |  |  | fraction fluorescent probe displaced, Screen (Acid 91): -0.08; fraction fluorescent probe displaced, Replicate (Acid 91): 0.0168
20 | CC(C)=CCCC(C)CC(=O)NCC1NC(=O)C2CCCN2C(=O)CCSSCCNC(=O)C(Cc2c[nH]c3ccccc23)NC1=O (mixture of isomers) [X-B1-D3-W + A84] |  |  |  |  | fraction fluorescent probe displaced (10 µM macrocycle concentration, crude acylated macrocycle (scaffold Mpa-AA1-AA2-AA3 x carboxylic acid), p53-based fluorescent peptide, human MDM2): 0.05085
21 | O=C(NC[C@@H]1NC(=O)[C@@H]2CCCN2C(=O)CCSSCCNC(=O)[C@H](Cc2ccccc2)NC1=O)c1ccc(Cl)cc1 [X B1 D3 F Acid 25] ([Mpa]P[Dap](Benzoyl(4-Cl))F-Cysteamide; disulfide 1-C) | 0.22 | 0.22 |  |  | 
22 | O=C(/C=C/c1ccccc1)NC[C@@H]1NC(=O)[C@@H]2CCCN2C(=O)CCSSCCNC(=O)[C@H](Cc2ccccc2)NC1=O [X B1 D3 F Acid 91] ([Mpa]P[Dap](X1)F-Cysteamide; disulfide 1-C) |  |  |  |  | fraction fluorescent probe displaced, Screen (Acid 91): 0.08; fraction fluorescent probe displaced, Replicate (Acid 91): 0.0168
23 | O=C(NC[C@@H]1NC(=O)[C@@H]2CCCN2C(=O)CCSSCCNC(=O)[C@H](Cc2c[nH]c3ccccc23)NC1=O)c1ccc(Cl)s1 [X B1 D3 W Acid 14] ([Mpa]P[Dap](2Thenoyl(5-Cl))W-Cysteamide; disulfide 1-C) |  |  | 0.17 | 0.10 | 
24 | O=C(NCC1NC(=O)C2CCCN2C(=O)CCSSCCNC(=O)C(Cc2c[nH]c3ccccc23)NC1=O)c1ccc(Cl)cc1 (stereo not drawn) [X B1 D3 W Acid 25] ([Mpa]P[Dap](Benzoyl(4-Cl))W-Cysteamide; disulfide 1-C; configuration not given here) | 0.22 | 0.20 |  |  | 
25 | O=C(/C=C/c1ccccc1)NC[C@@H]1NC(=O)[C@@H]2CCCN2C(=O)CCSSCCNC(=O)[C@H](Cc2c[nH]c3ccccc23)NC1=O [X B1 D3 W Acid 91] ([Mpa]P[Dap](X1)W-Cysteamide; disulfide 1-C) |  |  |  |  | fraction fluorescent probe displaced, Screen (Acid 91): 0.11; fraction fluorescent probe displaced, Replicate (Acid 91): 0.07
26 | O=C(N[C@H]1C[C@H]2C(=O)N[C@@H](Cc3ccccc3)C(=O)NCCSSCCC(=O)N3CCC[C@H]3C(=O)N2C1)c1ccc(Cl)cc1 [X B1 D5 F Acid 25] ([Mpa]P[Pro(cis-4-NHBenzoyl(4-Cl))]F-Cysteamide; disulfide 1-C) | 0.16 | 0.15 |  |  | 
27 | O=C(NC1CC2C(=O)NC(Cc3c[nH]c4ccccc34)C(=O)NCCSSCCC(=O)N3CCCC3C(=O)N2C1)c1ccc(Cl)s1 (stereo not drawn) [X B1 D5 W Acid 14] ([Mpa]P[ξPro(4-NHCO(5-Cl-2-thienyl))]W-Cysteamide; disulfide 1-C; configuration not given here) |  |  | 0.28 | 0.0465 | 
28 | O=C(/C=C/c1ccccc1)N[C@H]1C[C@H]2C(=O)N[C@@H](Cc3c[nH]c4ccccc34)C(=O)NCCSSCCC(=O)N3CCC[C@H]3C(=O)N2C1 [X B1 D5 W Acid 91] ([Mpa]P[Pro(cis-4-NH-(E)-Cinnamoyl)]W-Cysteamide; disulfide 1-C) |  |  |  |  | fraction fluorescent probe displaced, Screen (Acid 91): 0.03; fraction fluorescent probe displaced, Replicate (Acid 91): 0.04
29 | O=C1NCCSSCCC(=O)N2CCC[C@H]2C(=O)NC2(CCN(C(=O)c3ccc(Cl)s3)CC2)C(=O)N[C@H]1Cc1ccccc1 [X B1 D6 F Acid 14] ([Mpa]P[Api](2Thenoyl(5-Cl))F-Cysteamide; disulfide 1-C) |  |  | -0.0116 | 0.07 | 
30 | O=C1NCCSSCCC(=O)N2CCC[C@H]2C(=O)NC2(CCN(C(=O)/C=C/c3ccccc3)CC2)C(=O)N[C@H]1Cc1ccccc1 [X B1 D6 F Acid 91] ([Mpa]P[Api](X1)F-Cysteamide; disulfide 1-C) |  |  |  |  | fraction fluorescent probe displaced, Screen (Acid 91): -0.10; fraction fluorescent probe displaced, Replicate (Acid 91): 0.05
31 | O=C1NCCSSCCC(=O)N2CCC[C@H]2C(=O)NC2(CCN(C(=O)/C=C/c3ccccc3)CC2)C(=O)N[C@H]1Cc1c[nH]c2ccccc12 [X B1 D6 W Acid 91] ([Mpa]P[Api](X1)W-Cysteamide; disulfide 1-C) |  |  |  |  | fraction fluorescent probe displaced, Screen (Acid 91): -0.08; fraction fluorescent probe displaced, Replicate (Acid 91): -0.08
32 | O=C(NC[C@@H]1NC(=O)[C@H](Cc2ccccc2)NC(=O)[C@@H]2CCCN2C(=O)CCSSCCNC1=O)c1ccc(Cl)cc1 [X B1 F D3 Acid 25] ([Mpa]PF[Dap](Benzoyl(4-Cl))-Cysteamide; disulfide 1-C) | 0.09 | 0.20 |  |  | 
